# Data published in US10166221B2, “Formulations of an LSD1 inhibitor” (Incyte Corporation, priority 2016, dated 2019).
# Structures can show the parent of a compound that is named as a salt.
# Key:
# [1] = Excipient compatibility, mass spectroscopy HPLC method (% Compound 2); format: physicochemical
# From the text: (low and high RH at both temperatures).
# [2] = Crystalline form change under storage conditions; format: physicochemical; settings: storage conditions of 25° C./60% RH and 40° C./75% RH
# Experimental: (§1) Form HI of Compound 1 di-tosylate salt was prepared during the process of drying a wet sample of Compound 1 di-tosylate salt, Form I, under ambient conditions. Form I slowly absorbed atmospheric moisture and gradually changed to crystalline Form HI.
# as §1, with “HI. […] Form HI can also be generated by purging humidified air (e.g., 60-85% RH) through Form I solid.” for “HI.”
# [3] = Excipient compatibility, UV HPLC method (degradation, impurities other than Compound 2)
# Experimental: This study was performed to determine stability of Compound 1 di-tosylate salt, Form I, in combination with various oral solid dosage form excipients. […] The data of the blends were compared with a control sample (Compound 1 di-tosylate salt alone) to assess the effect of each excipient relative to Compound 1 di-tosylate salt alone.
# Blends were prepared by screening the components together; aliquots were then weighed for stability testing. The binary blend samples were initially stored under accelerated conditions (50° C./dry, 50° C./75% RH) in open glass vials and analyzed by HPLC to determine the potential for drug substance degradation with each excipient. […] Analysis of a control (Compound 1 di-tosylate salt alone) was included for comparison at each condition.
# Compound 1 di-tosylate salt was blended at the desired ratio of excipient to drug (see Table 7 below) by weighing each material, mixing with a spatula in a vial, and screening the mixture 5 times with an 18 mesh screen. A control sample was included for comparison to the blends. The weight equivalent of approximately 4 mg of Compound 1 di-tosylate salt was added to each glass vial and initially set-up at 50° C./dry (<20% RH) and 50° C./75% RH. Based on results after 1 week at 50° C.; additional samples were set-up at 40° C./dry and 40° C./75% RH. […] The 75% RH chamber was maintained by using a saturated sodium chloride solution in water (inside a closed chamber). The humidity of the 75% RH chamber was verified with a hygrometer (VWR brand). Samples were tested by HPLC after 1 week at 50° C. and 1 and 2 weeks at 40° C. (low and high RH at both temperatures). Data were also measured for samples at 20° C. in closed vials.
# Samples were analyzed by HPLC using the method described below after dilution in 85% H2O (0.1% TFA)/15% acetonitrile to 4 mL, sonication for 5 minutes, and filtration (0.45 μm Acrodisc GHP). One injection per sample was performed at each stability station. Two methods were performed on the stability samples: a UV based HPLC method and a mass spectroscopy HPLC method performed for one impurity (Compound 2).
# UV HPLC Method-Instrument: Agilent 1260 HPLC; Column: Ascentis Express C18 4.6×150 mm; Mobile Phase A: Water (0.1% TFA); Mobile Phase B: Acetonitrile (0.1% TFA); Flow Rate: 1.0 mL/min; Injection volume: 10 μL; UV Detection 214 nm; Column Temperature: 30° C.; Run Time: 33 min; Sample concentration: 1.0 mg/mL as salt; Threshold: 0.1%; Gradient Program:
# Accelerated storage (50° C., 40° C.) conditions were used to identify potential drug-excipient interactions.
# [4] = DVS moisture uptake analysis; format: physicochemical
# Experimental: Form DH was characterized by DVS. The DVS analysis was performed on a TA Instruments Vapor Sorption Analyzer, model VTI-SA^+. Form DH was generated by pre-drying Form HI on VTI at 40° C. with 0% RH N2 for 3 h. Then the moisture uptake profile was completed in one cycle in 5% RH increments with adsorption from 0% RH to 95% RH followed by desorption in 5% increments from 95% to […]. The equilibration criteria were 0.0010 wt % in 5 minutes with a maximum equilibration time of 180 minutes. All adsorption and desorption were performed at 25° C.
% Compound 2 ([1]; 1 w 50° C./75% RH) [%],% Compound 2 ([1]; 1 w 50° C./dry) [%],"2 W 20° C. % of cmpd 2 ([1]; 20° C., 2 w, closed vials) [%]",wt % of Compound 2 ([1]; 40° C. (dry) 1 W) [wt %],wt % of Compound 2 ([1]; 40° C. (dry) 2 W) [wt %],wt % of Compound 2 ([1]; 40° C./75% RH 1 w) [wt %],wt % of Compound 2 ([1]; 40° C./75% RH 2 w) [wt %],Crystalline form change on storage [2],Compound 1 di-tosylate salt degradation (UV Method) ([3]; 1 W 40° C./75% RH) [%],Compound 1 di-tosylate salt degradation (UV Method) ([3]; 1 W 40° C./dry) [%],"Compound 1 di-tosylate salt degradation (UV Method) ([3]; 1 w 50° C./75% RH, open glass vials, peak area percent) [%]","Compound 1 di-tosylate salt degradation (UV Method) ([3]; 1 w 50° C./dry (<20% RH), open glass vials, peak area percent) [%]",Compound 1 di-tosylate salt degradation (UV Method) ([3]; 2 W 40° C./75% RH) [%],Compound 1 di-tosylate salt degradation (UV Method) ([3]; 2 W 40° C./dry) [%],"20° C. 2 w UV method ([3]; 20° C., 2 w, closed vials) [%]","Hygroscopicity (DVS) ([4]; adsorption 0% RH to 95% RH, desorption 95% to 85% RH, 25° C.)",Solid collected after DVS ([4]; after DVS at 85% RH),SMILES
2.47,2.37,0.43,1.4,3.4,1.3,1.9,converted to Form HI,<0.1,0.43,0.3,1.4,<0.1,0.86,<0.1,–,–,"COCC1(CN[C@@H]2C[C@H]2c2ccccc2)CCN(CC2(C(=O)O)CCC2)CC1 [Cmpd 1 di-tosylate salt alone, 1-{[4-(methoxymethyl)-4-({[(1R,2S)-2-phenylcyclopropyl]amino}methyl)piperidin-1-yl]methyl}cyclobutanecarboxylic acid bis(4-methylbenzenesulfonate)]"
–,–,–,–,–,–,–,–,–,–,–,–,–,–,–,hygroscopic,Form HI,COCC1(CN[C@@H]2C[C@H]2c2ccccc2)CCN(CC2(C(=O)O)CCC2)CC1 [Form DH]
